Measured values reported in article PMC5472749, “A covalent PIN1 inhibitor selectively targets cancer cells by a dual mechanism of action” (Nature Communications, 2017).

Molecular target: T1, PIN1 (Homo sapiens, UniProt Q13526)
T1 construct: recombinant human PIN1
Assay: trypsin-coupled PPIase assay (kinact/Ki; IC50 […]); LC/MS and MALDI MS/MS show a +[…] Da adduct on C113, absent in C113A
Type: biochemical
Conditions: read-out: Ki

T1 sequence (Q13526 whole entry): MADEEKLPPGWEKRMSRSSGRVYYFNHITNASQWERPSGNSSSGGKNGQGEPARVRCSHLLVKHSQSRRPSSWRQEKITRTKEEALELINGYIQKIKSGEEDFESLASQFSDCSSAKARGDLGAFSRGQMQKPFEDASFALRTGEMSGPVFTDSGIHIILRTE

Work on CC(C)(C)c1ccc(S(=O)(=O)/N=C2/C=C(SCC(=O)O)C(=O)c3ccccc32)cc1 [compound 1] yielded a KI (inactivation) of 625 ± 325 nM.
